# Source: ChEMBL document CHEMBL1129764, “Synthesis of N-kojic-amino acid and N-kojic-amino acid-kojiate and their tyrosinase inhibitory activity” (Bioorg Med Chem Lett, 1996)
# Target: T1, Tyrosinase (Homo sapiens, UniProt P14679)
# T1 sequence (P14679 whole entry): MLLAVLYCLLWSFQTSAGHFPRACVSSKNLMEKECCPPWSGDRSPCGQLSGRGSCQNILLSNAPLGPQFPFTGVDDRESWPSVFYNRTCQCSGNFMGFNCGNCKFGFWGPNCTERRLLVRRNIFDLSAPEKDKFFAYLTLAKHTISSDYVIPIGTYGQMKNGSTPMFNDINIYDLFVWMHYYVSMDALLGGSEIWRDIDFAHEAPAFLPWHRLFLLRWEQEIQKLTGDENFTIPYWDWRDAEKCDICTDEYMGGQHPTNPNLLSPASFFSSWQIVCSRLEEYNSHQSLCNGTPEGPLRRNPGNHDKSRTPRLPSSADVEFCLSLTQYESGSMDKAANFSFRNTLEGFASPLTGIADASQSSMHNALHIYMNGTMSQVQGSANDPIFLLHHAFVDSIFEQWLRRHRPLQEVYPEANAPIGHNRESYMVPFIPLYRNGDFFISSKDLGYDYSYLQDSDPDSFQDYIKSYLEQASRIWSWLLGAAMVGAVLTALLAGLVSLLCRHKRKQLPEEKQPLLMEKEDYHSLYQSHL
# Assay: Compound was evaluated for inhibition of tyrosinase enzyme; Not active; call rule not given here
# Set-up: species or system mushroom
smiles,measurement,value
N[C@@H](Cc1ccccc1)C(=O)O [PHENYLALANINE],IC50,Not Active
